What was measured:
Format in all cases: ADME, cell-based, Hepatocyte
[1] = Intrinsic clearance in human hepatocytes assessed per 10^6 cells relative to SPL026
[2] = Intrinsic clearance in human hepatocytes assessed per 10^6 cells; conditions: read-out: CLH
[3] = Half life in human hepatocytes

| SMILES | fold change (FC) [1] | hepatocyte CLint [2] | half-life [3] |
| --- | --- | --- | --- |
| O=C(O)/C=C/C(=O)O.[2H]C([2H])([2H])N(CCc1c[nH]c2ccccc12)C([2H])([2H])[2H] | 1.1 | – | – |
| O=C(O)/C=C/C(=O)O.[2H]C([2H])([2H])N(C([2H])([2H])[2H])C([2H])([2H])Cc1c[nH]c2ccccc12 | 2.1 | 9.3 µL/min/1e6 cells | 3.45 h |
